Data taken from patent US20240381872A1, “SUBSTITUTED 2,3-DIHYDRO[1,3]THIAZOLO[4,5-B]PYRIDINES, SALTS THEREOF AND THEIR USE AS HERBICIDALLY ACTIVE SUBSTANCES” (BAYER AKTIENGESELLSCHAFT, priority 2021, published 2024).

Columns and labels:
Format in all cases: in vivo
[1] = test system: Matricaria inodora (MATIN); assay: Herbicidal pre-emergence action, section A (Table A6); conditions: application rate 1280 g/ha; visual grading after ca. 3 weeks vs untreated controls
Source text: (§1) Seeds of mono- and dicotyledonous weed plants were sown in plastic pots (double sowings with one species of mono- and one species of dicotyledonous weed plants per pot), in sandy loam, and covered with soil. The compounds according to the invention, formulated in the form of wettable powders (WP) or as emulsifiable concentrates (EC), were applied to the surface of the covering soil as aqueous suspension or emulsion, with the addition of 0.5% of an additive, at an application rate of 600 l of water per hectare (converted). Following treatment, the pots were placed in a greenhouse and kept under optimum growth conditions for the test plants. The visual grading of the damage to the test plants was carried out after ca. 3 weeks in comparison to untreated controls (herbicidal effect in percent (%): 100% effect=plants have died off, 0% effect=as control plants).

[2] = test system: Amaranthus retroflexus (AMARE); assay: Herbicidal post-emergence action, section B (Table B11); conditions: visual rating about 3 weeks after treatment vs untreated controls; for post-emergence activity against AMARE in %: application rate 1280 g/ha
Method: (§2) Seeds of mono- and dicotyledonous weed plants were placed in plastic pots in sandy loam soil (doubly sown with in each case one species of mono- or dicotyledonous weed plants per pot), covered with soil and cultivated in a greenhouse under controlled growth conditions. 2 to 3 weeks after sowing, the test plants were treated at the one-leaf stage. The compounds of the invention, formulated in the form of wettable powders (WP) or as emulsion concentrates (EC), were applied onto the green parts of the plants as aqueous suspension or emulsion with addition of 0.5% additive at a water application rate of 600 liters per hectare (converted). After the test plants had been kept in the greenhouse under optimum growth conditions for about 3 weeks, the activity of the preparations was rated visually in comparison to untreated controls. For example, 100% activity=the plants have died, 0% activity=like control plants.

Lolium rigidum (LOLRI) = assay: Herbicidal pre-emergence action, section A (Table A5); conditions: application rate 1280 g/ha, visual grading after ca. 3 weeks vs untreated controls
Source text: as §1

Poa annua (POAAN) [3] = assay: Herbicidal pre-emergence action, section A (Table A7); conditions: application rate 1280 g/ha, visual grading after ca. 3 weeks vs untreated controls
Source text: as §1

Stellaria media (STEME) [4] = assay: Herbicidal post-emergence action, section B (Table B9); conditions: application rate 1280 g/ha, visual rating about 3 weeks after treatment vs untreated controls
Method: as §2

Kochia scoparia (KCHSC) [5] = assay: Herbicidal pre-emergence action, section A (Table A4); conditions: visual grading after ca. 3 weeks vs untreated controls
Source text: as §1

Kochia scoparia (KCHSC) [6] = assay: Herbicidal post-emergence action, section B (Table B4); conditions: visual rating about 3 weeks after treatment vs untreated controls
Method: as §2

Setaria viridis (SETVI) [7] = assay: Herbicidal pre-emergence action, section A (Table A8)
Source text: as §1

Stellaria media (STEME) [8] = assay: Herbicidal pre-emergence action, section A (Table A9); conditions: application rate 1280 g/ha
Source text: as §1

[9] = test system: Abutilon theophrasti (ABUTH); assay: Herbicidal post-emergence action, section B (Table B1); conditions: application rate 1280 g/ha, rated visually after about 3 weeks
Method: as §2

[10] = test system: Echinochloa crus-galli (ECHCG); assay: Herbicidal pre-emergence action, section A (Table A3); conditions: visual grading after ca. 3 weeks vs untreated controls
Source text: as §1

[11] = test system: Digitaria sanguinalis (DIGSA); assay: Herbicidal pre-emergence action, section A (Table A12); conditions: application rate 1280 g/ha
Source text: as §1

[12] = test system: Amaranthus retroflexus (AMARE); assay: Herbicidal pre-emergence action, section A (Table A11); conditions: application rate 320 g/ha
Source text: as §1

[13] = test system: Echinochloa crus-galli (ECHCG); assay: Herbicidal post-emergence action, section B (Table B3); conditions: application rate 1280 g/ha, rated visually after about 3 weeks
Method: as §2

Veronica persica (VERPE) [14] = assay: Herbicidal post-emergence action, section B (Table B10); conditions: visual rating about 3 weeks after treatment vs untreated controls
Method: as §2

Poa annua (POAAN) [15] = assay: Herbicidal post-emergence action, section B (Table B7); conditions: application rate 1280 g/ha, visual rating about 3 weeks after treatment vs untreated controls
Method: as §2

Veronica persica (VERPE) [16] = assay: Herbicidal pre-emergence action, section A (Table A10); conditions: Veronica persica, 504 h, application rate 1280 g/ha, read-out: pre-emergence activity against VERPE in %
Source text: as §1

[17] = test system: Triticum aestivum (TRZAS); assay: Pre-emergence effects on crop plants, section D (Table D2); conditions: application rate 320 g/ha; visual grading after ca. 3 weeks
Source text: (§3) Seeds of mono- and dicotyledonous weed plants and crop plants were sown, in plastic or organic planting pots, in sandy loam and covered with soil. The compounds according to the invention, formulated in the form of wettable powders (WP) or as emulsifiable concentrates (EC), were applied to the surface of the covering soil as aqueous suspension or emulsion, with the addition of 0.5% of an additive, at an application rate of 600 l of water/ha (converted).
(§4) Following treatment, the pots were placed in a greenhouse and kept under optimum growth conditions for the test plants. The visual grading of the damage to the test plants was carried out after ca. 3 weeks in comparison to untreated controls (herbicidal effect in percent (%): 100% effect=plants have died off, 0% effect=as control plants).
(§5) Tables D1 to D5 below show the effects of various compounds of the general formula (I) according to Table 1 on various crop plants and an application rate corresponding to 320 g/ha or below obtained by the experimental procedure mentioned above in Biological Examples, Section C.

Zea mays (ZEAMX) [18] = assay: Post-emergence effects on crop plants, section F (Table F1); conditions: Zea mays, 504 h, application rate 80 g/ha, read-out: post-emergence activity against ZEAMX in %
Source text: (§6) Seeds of mono- and dicotyledonous weed plants and crop plants were sown, in plastic or organic planting pots, in sandy loam, covered with soil and grown in a greenhouse under controlled growth conditions. 2 to 3 weeks after sowing, the test plants were sprayed in the single-leaf stage. The compounds according to the invention, formulated in form of wettable powders (WP) or as emulsifiable concentrates (EC), were sprayed onto the green plant parts as aqueous suspension or emulsion, with the addition of 0.5% of an additive, at an application rate of 600 l of water/ha (converted). The test plants were placed in the greenhouse for ca. 3 weeks under optimum growth conditions, and then the effect of the preparations was assessed visually in comparison with untreated controls (herbicidal effect in percent (%): 100% effect=plants have died off, 0% effect=as control plants). Tables F1 to F4 below show the effects of selected compounds of the general formula (I) according to Table 1 on various crop plants and an application rate corresponding to 320 g/ha or below obtained by the experimental procedure mentioned above.

[19] = test system: Digitaria sanguinalis (DIGSA); assay: Herbicidal pre-emergence action, section C (Table C12); conditions: Digitaria sanguinalis, pre-emergence, 504 h; application rate 320 g/ha; visual grading after ca. 3 weeks; read-out: pre-emergence activity against DIGSA in %
Source text: (§7) Seeds of mono- and dicotyledonous weed plants and crop plants were sown, in plastic or organic planting pots, in sandy loam and covered with soil. The compounds according to the invention, formulated in the form of wettable powders (WP) or as emulsifiable concentrates (EC), were applied to the surface of the covering soil as aqueous suspension or emulsion, with the addition of 0.5% of an additive, at an application rate of 600 l of water/ha (converted). Following treatment, the pots were placed in a greenhouse and kept under optimum growth conditions for the test plants. The visual grading of the damage to the test plants was carried out after ca. 3 weeks in comparison to untreated controls (herbicidal effect in percent (%): 100% effect=plants have died off, 0% effect=as control plants).

[20] = test system: Triticum aestivum (TRZAS); assay: Post-emergence effects on crop plants, section F (Table F2); conditions: Triticum aestivum, 504 h, application rate 320 g/ha, read-out: post-emergence activity against TRZAS in %
Source text: as §6

Setaria viridis (SETVI) [21] = assay: Herbicidal pre-emergence action, section C (Table C8); conditions: Setaria viridis, pre-emergence, 504 h; application rate 320 g/ha; visual grading after ca. 3 weeks; read-out: pre-emergence activity against SETVI in %
Source text: as §7

Zea mays (ZEAMX) [22] = assay: Pre-emergence effects on crop plants, section D (Table D1); conditions: application rate 320 g/ha; visual grading after ca. 3 weeks
Source text: as §3, §4, §5

[23] = test system: Echinochloa crus-galli (ECHCG); assay: Herbicidal pre-emergence action, section C (Table C3); conditions: Echinochloa crus-galli, pre-emergence, 504 h; application rate 320 g/ha; visual grading after ca. 3 weeks vs untreated controls; read-out: pre-emergence activity against ECHCG in %
Source text: as §7

Glycine max (GLXMA) = assay: Post-emergence effects on crop plants, section F (Table F4); conditions: Glycine max, 504 h, application rate 320 g/ha, read-out: post-emergence activity against GLXMA in %
Source text: as §6

Cc1cccc(F)c1-c1nc2c(cc1Br)SCN2 [Example I-032]
100%: pre-emergence activity against LOLRI in % (Lolium rigidum (LOLRI)) | pre-emergence activity against POAAN in % (Poa annua (POAAN) [3]) | pre-emergence activity against SETVI in % (Setaria viridis (SETVI) [7]; application rate 320 g/ha) | pre-emergence activity against STEME in % (Stellaria media (STEME) [8]) | pre-emergence activity against ECHCG in % ([10]; application rate 320 g/ha) | pre-emergence activity against DIGSA in % [11]
90%: pre-emergence activity against MATIN in % [1] | post-emergence activity against AMARE in % [2] | post-emergence activity against STEME in % (Stellaria media (STEME) [4]) | pre-emergence activity against KCHSC in % (Kochia scoparia (KCHSC) [5]; application rate 1280 g/ha) | post-emergence activity against KCHSC in % (Kochia scoparia (KCHSC) [6]; application rate 1280 g/ha) | post-emergence activity against ABUTH in % [9] | pre-emergence activity against AMARE in % [12]

CCCC(=O)N1CSc2cc(Br)c(-c3ccccc3Cl)nc21 [Example I-042, 1-[6-bromo-5-(2-chlorophenyl)[1,3]thiazolo[4,5-b]pyridin-3(2H)-yl]butan-1-one]
100%: pest or weed control at 1280 g/ha (Poa annua (POAAN) [3]; Poa annua, pre-emergence, 504 h, read-out: pre-emergence activity against POAAN in %) | pest or weed control at 1280 g/ha (Setaria viridis (SETVI) [7]; Setaria viridis, 504 h, application rate 1280 g/ha, read-out: pre-emergence activity against SETVI in %) | pest or weed control at 1280 g/ha ([10]; Echinochloa crus-galli, pre-emergence, 504 h, application rate 1280 g/ha, read-out: pre-emergence activity against ECHCG in %) | pest or weed control at 1280 g/ha ([11]; Digitaria sanguinalis, 504 h, read-out: pre-emergence activity against DIGSA in %)
90%: pest or weed control at 320 g/ha ([2]; Amaranthus retroflexus, post-emergence, 504 h, application rate 320 g/ha, read-out: post-emergence activity against AMARE in %) | pest or weed control at 1280 g/ha (Lolium rigidum (LOLRI); Lolium rigidum, pre-emergence, 504 h, read-out: pre-emergence activity against LOLRI in %) | pest or weed control at 1280 g/ha ([13]; Echinochloa crus-galli, 504 h, read-out: post-emergence activity against ECHCG in %) | pest or weed control at 1280 g/ha (Stellaria media (STEME) [4]; Stellaria media, post-emergence, 504 h, read-out: post-emergence activity against STEME in %) | pest or weed control at 320 g/ha (Kochia scoparia (KCHSC) [5]; Bassia scoparia, pre-emergence, 504 h, application rate 320 g/ha, read-out: pre-emergence activity against KCHSC in %) | pest or weed control at 1280 g/ha (Veronica persica (VERPE) [14]; Veronica persica, post-emergence, 504 h, application rate 1280 g/ha, read-out: post-emergence activity against VERPE in %) | pest or weed control at 320 g/ha (Kochia scoparia (KCHSC) [6]; Bassia scoparia, post-emergence, 504 h, application rate 320 g/ha, read-out: post-emergence activity against KCHSC in %) | pest or weed control at 1280 g/ha (Stellaria media (STEME) [8]; Stellaria media, 504 h, read-out: pre-emergence activity against STEME in %) | pest or weed control at 1280 g/ha (Poa annua (POAAN) [15]; Poa annua, post-emergence, 504 h, read-out: post-emergence activity against POAAN in %) | pest or weed control at 1280 g/ha ([9]; Abutilon theophrasti, 504 h, read-out: post-emergence activity against ABUTH in %) | pest or weed control at 1280 g/ha (Veronica persica (VERPE) [16]) | pest or weed control at 320 g/ha ([12]; Amaranthus retroflexus, 504 h, read-out: pre-emergence activity against AMARE in %)

COC(=O)CCC(=O)N1CSc2cc(Br)c(-c3sccc3Cl)nc21 [Example I-077, methyl 4-[6-bromo-5-(3-chloro-2-thienyl)-2H-thiazolo[4,5-b]pyridin-3-yl]-4-oxo-butanoate]
10%: pre-emergence activity against ZEAMX in % (crop plant damage) (Zea mays (ZEAMX) [22]) | percent crop plant damage at 320 g/ha (Glycine max (GLXMA))
90%: pest or weed control at 320 g/ha [19] | pest or weed control at 320 g/ha (Setaria viridis (SETVI) [21]) | pest or weed control at 320 g/ha [23]
0%: pre-emergence activity against TRZAS in % (crop plant damage) [17] | percent crop plant damage (phytotoxicity) on Zea mays, post-emergence at 80 g/ha (Zea mays (ZEAMX) [18])
20%: percent crop plant damage (wheat, post-emergence) at 320 g/ha [20]

COC(=O)CCC(=O)N1CSc2cc(Br)c(-c3ccc(F)cc3F)nc21 [Example I-085]
90%: post-emergence activity against AMARE in % [2] | post-emergence activity against ECHCG in % [13] | post-emergence activity against STEME in % (Stellaria media (STEME) [4]) | post-emergence activity against POAAN in % (Poa annua (POAAN) [15]) | post-emergence activity against ABUTH in % [9]
100%: pre-emergence activity against POAAN in % (Poa annua (POAAN) [3]) | post-emergence activity against VERPE in % (Veronica persica (VERPE) [14]; application rate 320 g/ha) | pre-emergence activity against SETVI in % (Setaria viridis (SETVI) [7]; application rate 1280 g/ha)
